Results: paper PMC9673142, “1,3-Diarylpyrazolyl-acylsulfonamides Target HadAB/BC Complex in Mycobacterium tuberculosis” (ACS Infectious Diseases, 2022)
In brackets after ≈: the same amount, converted by molar mass.

Columns and labels:
[1] = system: EthA mutant (C253R) of Mtb; details: cited from earlier work
Mtb/pNIP40b-hadABC = assay: microbe, parasite or virus in culture; type: cell-based; details: Mycobacterium tuberculosis, read-out: MIC Mtb/pNIP40b-hadABC
[2] = system: compound 1-resistant Mtb mutants (SRM59, Rv0637/hadC:K157R); type: cell-based, Mycobacterium tuberculosis

CS(=O)(=O)NC(=O)CCc1cn(-c2ccc(Cl)cc2)nc1-c1ccc(Cl)cc1 [Compound 2]
change in MIC against EthA mutant (C253R) [1]: no change | MIC (Mtb/pNIP40b-hadABC): 2.5 µM (≈ 1.1 µg/mL)

CS(=O)(=O)NC(=O)CCc1cn(-c2ccc(Br)cc2)nc1-c1ccncc1 [Compound 1]
Compound 1 MIC, SRM59-1 [2]: 50 to 100 µM | Compound 1 MIC, SRM59-2 [2]: 50 to 100 µM | Compound 1 MIC, SRM59-3 [2]: 50 to 100 µM | change in MIC against EthA mutant (C253R) [1]: no change

CCc1c(COC(=O)NS(C)(=O)=O)c(-c2ccc(Cl)cc2)nn1-c1ccc(Cl)cc1 [Compound 15]
MIC (Mtb/pNIP40b-hadABC): 7.8 µM (≈ 3.65 µg/mL)

CS(=O)(=O)NC(=O)NCc1cn(-c2ccc(C(F)(F)F)nc2)nc1-c1ccncc1 [Compound 11]
MIC (Mtb/pNIP40b-hadABC): > 40 µM

CC(C)CCOc1ccc(NC(=S)Nc2ccc(OCCC(C)C)cc2)cc1 [ISO, isoxyl, reference compound]
resistance of EthA mutant (C253R) [1]: 4–8 folds

O=C(O)CCc1cn(-c2ccc(Br)cc2)nc1-c1ccc(Cl)cc1 [Compound 10]
MIC (Mtb/pNIP40b-hadABC): 3 µM (≈ 1.22 µg/mL)

O=c1[nH]nc(CCc2cn(-c3ccc(Br)cc3)nc2-c2ccc(Cl)cc2)o1 [Compound 12]
MIC (Mtb/pNIP40b-hadABC): 12.5 µM (≈ 5.57 µg/mL)

CC(=O)Nc1ccc(/C=N/NC(N)=S)cc1 [TAC, thioacetazone, reference compound]
resistance of EthA mutant (C253R) [1]: 4–8 folds

CS(=O)(=O)c1nnc(Cc2cn(-c3ccc(Cl)cc3)nc2-c2ccncc2)o1 [Compound 13]
MIC (Mtb/pNIP40b-hadABC): 1.9 µM (≈ 0.79 µg/mL)
